{
  "source": "PubChem BioAssay AID304",
  "about": "(DTP/NCI, 2004)",
  "system": "Lymphosarcoma Mecca ip in C3AKF1 mice, survival T/C%",
  "experiment": "NCI In Vivo Anticancer Drug Screen. Data for tumor model Lymphosarcoma Mecca (intraperitoneal) in C3AKF1 (CHKRF1) mice",
  "details": "endpoint: survival time, mean or median, schedule: Q01DX010 (ip), vehicle: saline, higher = longer survival",
  "experimental": "The antitumor activity of compounds was measured in mice bearing transplantable tumors. Survival or tumor size were measured and the results are expressed as the measurement made in the treated group (T) divided by the measurement made in the vehicle treated control group (C). The tumor model used in this assay is Lymphosarcoma Mecca (intraperitoneal) in C3AKF1 (CHKRF1) mice",
  "note": "Values joined by “and” are separate entries in the source; they are usually repeats but may differ in a detail not shown here. Equal values may be shown once. Toxic doses and inconclusive results are not listed.",
  "data": [
    {"smiles": "CCOC(=O)NP(=O)(N1CC1)N1CC1", "values": [
      {"measurement": "T/C", "setting": "dose: 2.5 mg/kg/injection", "value": "111 % of control and 116 % of control"},
      {"measurement": "T/C", "setting": "dose: 5.0 mg/kg/injection", "value": "116 % of control and 122 % of control"},
      {"measurement": "T/C", "setting": "dose: 10.0 mg/kg/injection", "value": "122 % of control"}
    ]},
    {"smiles": "N=C(N)c1ccc(Nc2ccc(C(=N)N)cc2)cc1", "values": [
      {"measurement": "T/C", "setting": "dose: 3.0 mg/kg/injection", "value": "100 % of control"},
      {"measurement": "T/C", "setting": "dose: 6.0 mg/kg/injection", "value": "90 % of control and 100 % of control"},
      {"measurement": "T/C", "setting": "dose: 12.0 mg/kg/injection", "value": "100 % of control and 110 % of control"},
      {"measurement": "T/C", "setting": "dose: 24.0 mg/kg/injection", "value": "100 % of control"}
    ]},
    {"smiles": "C1CN1c1nc(N2CC2)nc(N2CC2)n1", "values": [
      {"measurement": "T/C", "setting": "dose: 0.13 mg/kg/injection", "value": "180 % of control"},
      {"measurement": "T/C", "setting": "dose: 0.25 mg/kg/injection", "value": "152 % of control"},
      {"measurement": "T/C", "setting": "dose: 0.5 mg/kg/injection", "value": "96 % of control"},
      {"measurement": "T/C", "setting": "dose: 1.0 mg/kg/injection", "value": "95 % of control"}
    ]},
    {"smiles": "CN(C)[C@@H]1C(=O)C(C(N)=O)=C(O)[C@@]2(O)C(=O)C3=C(O)c4c(O)cccc4C[C@H]3C[C@@H]12", "values": [
      {"measurement": "T/C", "setting": "dose: 3.75 mg/kg/injection", "value": "100 % of control"},
      {"measurement": "T/C", "setting": "dose: 7.5 mg/kg/injection", "value": "100 % of control"},
      {"measurement": "T/C", "setting": "dose: 15.0 mg/kg/injection", "value": "100 % of control"},
      {"measurement": "T/C", "setting": "dose: 30.0 mg/kg/injection", "value": "90 % of control and 94 % of control"}
    ]},
    {"smiles": "CCOC(N)=O", "values": [
      {"measurement": "T/C", "setting": "dose: 125.0 mg/kg/injection", "value": "90 % of control and 104 % of control"},
      {"measurement": "T/C", "setting": "dose: 250.0 mg/kg/injection", "value": "86 % of control and 95 % of control"},
      {"measurement": "T/C", "setting": "dose: 500.0 mg/kg/injection", "value": "95 % of control and 122 % of control"}
    ]}
  ]
}
